Target: HSV-1 TK (Human alphaherpesvirus 1 strain KOS, UniProt P17402)
Assay: Thymidine kinase inhibitory assay
Assay type: biochemical
Details: 1 μM [^3 H]thymidine, 5 mM ATP, pH 7.5, 37° C., 1 hour; 0-20 μM inhibitor; slope replots of Lineweaver-Burk plots
Protocol: The reaction (50 μl) was performed in: 50 mM Tris-HCl pH 7.5, 5 mM MgCl2, 30 mM KCl, 2 mM dithiothreitol, 5 mM ATP, 1 μM [^3 H]thymidine, 0-20 μM potential inhibitor, 0.075 mg/ml bovine serum albumin, 0.1 unit/ml HSV-1 TK. Incubation was at 37° C. for 1 hour. Samples (40 μl) were spotted on DE-81 filter disks, washed with 1 mM ammonium formate (pH 7), three times with water, twice with ethanol, and dried. Radioactivity was quantitated in a scintillation counter.
TK (thymidine kinase) was affinity purified from HSV-1 (KOS) infected cells by published procedures (Fyfe (1982) Mol. Pharmacol. 21:432-437 and Field et al. (1990) Antiviral Res. 13:41-52). One unit is defined as 1 nanomole thymidine phosphorylated per hour.
In Table 2, inhibition constants were determined from slope replots (1/slope vs [I]) of Lineweaver-Burk plots. "N" indicates the number of experiments, and each experiment was done in triplicate.

Sequence of HSV-1 TK (P17402 whole entry, looked up): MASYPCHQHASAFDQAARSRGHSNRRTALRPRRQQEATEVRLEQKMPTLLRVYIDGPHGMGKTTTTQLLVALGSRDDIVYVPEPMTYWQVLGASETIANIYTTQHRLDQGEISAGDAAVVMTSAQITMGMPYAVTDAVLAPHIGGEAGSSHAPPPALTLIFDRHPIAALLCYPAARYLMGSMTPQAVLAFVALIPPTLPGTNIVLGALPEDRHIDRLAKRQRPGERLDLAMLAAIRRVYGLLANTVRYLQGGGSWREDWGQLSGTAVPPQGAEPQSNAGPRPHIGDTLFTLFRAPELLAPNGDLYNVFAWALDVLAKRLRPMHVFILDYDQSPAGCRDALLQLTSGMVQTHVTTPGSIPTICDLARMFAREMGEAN

Ki [µM] | SMILES
3.2 ± 0.3 | CO[C@H]1O[C@@H](n2cc(C)c(=O)[nH]c2=O)C[C@@H]1O (single isomer, unassigned) [Compound 2]
26 | Cc1cn([C@H]2C[C@H](O)[C@@H](OCCc3ccccc3)O2)c(=O)[nH]c1=O [Compound 12]
4.3 ± 1.8 | Cc1cn([C@H]2C[C@@H](O)[C@H](OCCc3ccccc3)O2)c(=O)[nH]c1=O [Compound 13]
10.1 ± 4.7 | Cc1cn([C@H]2C[C@@H](O)[C@H](OCc3ccc(Br)cc3)O2)c(=O)[nH]c1=O [Compound 16]

From US5306722A, “Thymidine derivatives and therapeutic method of use” (Bristol-Myers Squibb Company, priority 1992, dated 1994)
